Results: patent publication US20050070437A1, “Herbicide combinations comprising specific sulfonamides” (Bayer CropScience GmbH, priority 2003, published 2005)

Legend:
[1] = test system: Triticum aestivum; assay type: in vivo; conditions: field trial, natural outdoor conditions; scored visually about 4 weeks after application vs untreated plots; mean of 2-4 plots; application rate g of active substance/hectare: A 5, B 25, C 50 (A + B 5 + 25; A + B + C 5 + 25 + 50)
Experimental: (§1) The seeds or rhizome pieces of the harmful plants and the useful plants were laid out or were present in the soil, and they were grown under natural outdoor conditions. Treatment with the active compounds or active compound combinations was carried out […] before and/or after the emergence of the plants, generally at the 2- to 4-leaf stage, in various dosages using a water application rate of 100 to 400 l/ha (converted).
(§2) After the application (about 4 weeks after the application), the effectiveness of the active compounds or active compound combinations was scored visually by comparing the treated plots to untreated control plots. During scoring, damage and development of all above-ground parts of plants was assessed. Scoring was carried out using a percentage scale (100% effect=all plants have died; 50% effect=50% of the plants and the green parts of the plants have died; 0% effect=no effect observed=like control plot). In each case, the mean score of 2-4 plots was calculated.
(§3) The results are shown in the table below; the effect of the individual application of active compounds (A+B) and C being stated in brackets.

[2] = test system: Veronica hederifolia; experiment: Herbicidal action (field trials), visual scoring of harmful plant; assay type: in vivo; conditions: field trial, natural outdoor conditions; scored visually about 4 weeks after application vs untreated plots; mean of 2-4 plots; application rate g of active substance/hectare: A 5, B 25, C 50 (A + B 5 + 25; A + B + C 5 + 25 + 50)
Experimental: as §1, §2, §3

Compound	Triticum aestivum % damage [1] [%]	Veronica hederifolia % effect [2] [%]
CCCOc1nn(C(=O)[N-]S(=O)(=O)c2ccccc2C(=O)OC)c(=O)n1C.[Na+] [propoxycarbazone-sodium]	2	28
COC(=O)c1ccc(I)cc1S(=O)(=O)[N-]C(=O)Nc1nc(C)nc(OC)n1.[Na+] [iodosulfuron-methyl-sodium]	1	15
O=C(Nc1ccc(F)cc1F)c1cccnc1Oc1cccc(C(F)(F)F)c1 [diflufenican, 2′,4′-difluoro-2-(α,α,α-trifluoro-m-tolyloxy)nicotinanilide]	0	40
